Results from patent US20050043369A1, “Bactericidal antimicrobial methods and compositions for use in treating gram positive infections” (Protez Pharmaceuticals Inc., priority 2000, published 2005).
Read-outs that look alike come from different tables or passages of the source.

How the values were obtained:
[1] = tested on: S. aureus strain ATTC 29213; test: Characterization of killing by INF 401 plus chloramphenicol (viability, morphology, protein, DNA, metal dependence); type: cell-based, Staphylococcus aureus; settings: reversed by exogenous Fe3+
Protocol: Time kill study of the effect of NF 401 in combination with chloramphenicol. Exponentially growing cells (S. aureus strain 29213) were diluted to OD600 0.1 in LB supplemented with 20 μg/ml of chloramphenicol (Cm) in the presence or absence of INF 401 (2 μg/ml) and incubated with shaking at 37° C. At indicated time points cells were harvested, washed with LB and plated on LB agar plates. Number of colony forming units (CFUs) was determined after overnight incubation.
Time kill study of the effect of iron on the bactericidal activity of INF 401. S. aureus strain 29213 was grown overnight in iron-limited Staphylococcal Siderophore Detection (SSD) medium (Heinrichs, 1999) supplemented with 2 μM FeCl3, washed with SSD and diluted 1:100 into the fresh medium containing 0, 2 or 50 μm FeCl3. Exponentially growing cells were diluted to OD600 0.01 in the corresponding medium supplemented when indicated with 20 μg/ml of chloramphenicol (Cm) and 2 μg/ml of INF 401. At 0, 1, 2 and 3.5 hours cells were plated in different dilutions to the LB agar plates and number of colony forming units (CFUs) was counted next day.

S. aureus SA1199 [2] = test: Checkerboard two-fold broth microdilution, MIC and MBC; type: cell-based, Staphylococcus aureus; settings: for MBC^b = MBC in the presence of 5 μg/ml of INF 401: plus 5 μg/ml INF 401
Protocol: Checkerboard titration was performed with INF 401 and erythromycin to quantitate the effects of the combination on Staphylococcal growth using two-fold serial broth microdilution. After overnight incubation, cells were transferred to fresh medium, as described above, to determine those combinations that were bactericidal to S. aureus. […] Although not determined according to NCCLS recommended procedures ([…]), the inventors considered this the Minimal Bactericidal Concentration (MBC).
The inventors next evaluated whether INF 401 was bactericidal in combination with other protein synthesis inhibitors which are bacteriostatic to S. aureus. Checkerboard studies were performed with two-fold dilutions of each antibiotic in combination with INF 401 using the assay described above in Example 2. After overnight incubation the MIC of each antibiotic was determined by visualization of bacterial growth. […] The MBC of each antibiotic was determined as described in Example 2 in the absence or presence of INF 401.

S. aureus (SA1199) = test: Time kill studies (CFU counts); type: cell-based, Staphylococcus aureus
Protocol: FIG. 5A, FIG. 5B and FIG. 5C. […]
The initial inoculum number was determined by plating an appropriate dilution on LB agar plates and determining the number of colony forming units (CFUs). At different time points an aliquot was withdrawn from each tube and cell viability was determined by plating an appropriate dilution and counting CFUs after overnight incubation.

S. pneumoniae = test: Bactericidal activity (MBC) of translational inhibitors with or without INF 401 in S. pneumoniae; type: cell-based, Streptococcus pneumoniae; settings: antibiotic alone
Excerpt: It would be desirable that an antibiotic potentiator of the present invention is active not only in S. aureus but also in other bacterial pathogens. The inventors have begun studies to investigate whether INF 401 can also potentiate the activity of translational inhibitors in another Gram positive pathogen, S. pneumoniae.

S. aureus SA1199 [3] = test: Checkerboard two-fold broth microdilution, MIC and MBC; type: cell-based, Staphylococcus aureus; settings: Table 2, plus 10 μg/ml INF 402, unit not given
S. aureus strain SA1199 = test: Screening and titration of potentiators with erythromycin (4 μg/ml), viability read by transfer to fresh medium; type: cell-based, Staphylococcus aureus; settings: for lowest concentration at which the potentiator is active (titration in the presence of erythromycin): erythromycin 4 μg/ml, S. aureus SA1199; for effect on viability of S. aureus in combination with a bacteriostatic concentration of erythromycin: library screen hit; for Activity (minimal concentration required to kill 99.9% of S. aureus): in the presence of 4 μg/ml erythromycin
Protocol: In an exemplary screening assay, in order to identify a candidate acyl hydrazide, oxy amide or 8-hydroxy quinoline composition as an antibacterial agent potentiator, the S. aureus strain SA1199 may be used. The procedure for screening is as follows: logarithmically growing S. aureus SA1199 are inoculated to a final OD600 of 0.002 into 150 μl of LB medium containing a bacteriostatic concentration of an antimicrobial agent for that strain, for example, erythromycin (4 μg/ml) at four times the Minimal Inhibitory
Concentration (MIC). […] In preliminary studies the inventors determined that under these conditions up to 2000 viable cells were transferred after incubation with erythromycin. As confirmed by broth microdilution, at least a 1000-fold reduction in viability was required to see no visible growth after 20 hours. Acyl hydrazide, oxy amide or 8-hydroxy quinoline antibiotic potentiators may be identified as those compounds that increase the bactericidal effect of the erythromycin.
The macrolide erythromycin was chosen in the initial screen for two reasons: first, its mechanism of inhibition of protein synthesis is well characterized and second, as a macrolide, erythromycin is representative of an expanding class of agents which includes the second most prescribed antibiotic, azithromycin.
In preliminary studies the inventors determined that under these conditions up to 2000 viable cells were transferred after incubation with erythromycin. As confirmed by broth microdilution, at least a 1000-fold reduction in viability was required to see no visible growth after 20 h.
Next the activity of the hit compounds was compared by titration of the compounds in the presence of erythromycin at 4 μg/ml as described above.
(§1) Activity of the compound is depicted as the minimal concentration required to kill 99.9% of S. aureus in the presence of 4 μg/ml erythromycin.

S. aureus ATCC 29213 = test: MBEC assay system, checkerboard: planktonic MIC and biofilm MBEC; type: cell-based, Staphylococcus aureus; settings: INF 401 at 0.3 μg/ml where in label
Protocol: These studies were performed via the method of Dr. Howard Ceri (University of Calgary), who recently developed a method for the routine determination of the antibiotic susceptibility of biofilms. To date, the inventors have tested the effect of the combination of INF 401 on the ability of either clindamycin or rifampin to eradicate S. aureus biofilms in vitro. S. aureus ATCC 29213 was selected for the study as previous studies of this isolate as a biofilm had been conducted and the isolate served as a quality assurance organism for NCCLS standardization of antibiotic testing. Biofilms were formed as previously described for this organism (Ceri et al., 1999) using the MBEC™ assay system. Checkerboard studies were performed with each antibiotic versus INF 401.

S. aureus SA 29213 = test: 55Fe transport assay (intracellular iron accumulation); type: cell-based, Staphylococcus aureus; settings: compound at 2 μg/ml; S. aureus SA 29213
Protocol: Next, investigated was whether INF 401 affects intracellular iron accumulation. An ^55Fe transport assay (modified from Sebulsky, 2000) was used to examine the ability of INF 401 to transport iron inside the cell. Briefly, exponentially growing cells were diluted to OD600 0.1 in LB, incubated with ^55FeCl3 for 30 min at 37° C., washed and counted in scintillation fluid using the tritium channel of a scintillation system. […] However, the presence of INF 401 in either the absence or presence of antibiotic led to a dramatic increase in iron accumulation (209,215 and 231,621 DPM, respectively).
as §1

[4] = Staphylococcus aureus, SA1199, read-out: MBC^a = MBC in the absence of INF 401, Table 1, S. aureus SA1199, antibiotic alone, unit inferred
[5] = Staphylococcus aureus, SA1199, read-out: MBC^a = MBC in the absence of INF 401, Table 2, S. aureus SA1199, antibiotic alone, unit inferred
[6] = Table 1, S. aureus SA1199, unit not given
[7] = Table 2, S. aureus SA1199, unit inferred

Compound: O=C(O)C(NCCNC(C(=O)O)c1ccccc1O)c1ccccc1O (stereo not drawn) [EDDHA]
- effect of iron chelator on killing by INF 401 [1]: completely ablate killing

Compound: CC[C@H]1OC(=O)[C@H](C)[C@@H](O[C@H]2C[C@@](C)(OC)[C@@H](O)[C@H](C)O2)[C@H](C)[C@@H](O[C@@H]2O[C@H](C)C[C@H](N(C)C)[C@H]2O)[C@](C)(O)C[C@@H](C)C(=O)[C@H](C)[C@@H](O)[C@]1(C)O [Erythromycin]
- bactericidal concentration of antibiotic alone as multiple of MIC (S. aureus SA1199 [2]; S. aureus, absence of INF 401): 16-32 ×MIC
- Minimal Bactericidal Concentration (greater than 1000-fold decrease in cell viability), antibiotic alone (S. aureus SA1199 [2]; S. aureus, not by NCCLS procedure): 16 to 32 µg/mL
- MIC (S. aureus SA1199 [2]; Staphylococcus aureus, SA1199): 1 µg/mL
- MBC (S. aureus SA1199 [2]; [4]): 16 to 32 µg/mL
- MBC (S. aureus SA1199 [2]; [5]): > 8 µg/mL
- MBC^b = MBC in the presence of 5 μg/ml of INF 401 (S. aureus SA1199 [2]; [6]): 1
- MIC (S. aureus SA1199 [2]; [7]): 1 µg/mL
- effect of single agent on growth of S. aureus in time kill study (S. aureus (SA1199); INF 401 5 μg/ml alone, erythromycin 2×MIC alone): bacteriostatic
- bactericidal concentration in the absence of INF 401 as multiple of MIC (S. pneumoniae): 1 ×MIC
- MBC^b = MBC in the presence of 10 μg/ml of INF 402 (S. aureus SA1199 [3]): 1

Compound: CC[n+]1c(-c2ccccc2)c2cc(N)ccc2c2ccc(N)cc21 [Ethidium bromide]
- MIC (S. aureus SA1199 [2]; Staphylococcus aureus, SA1199): 16 µg/mL
- MBC (S. aureus SA1199 [2]; [4]): > 128 µg/mL
- MBC (S. aureus SA1199 [2]; [5]): > 128 µg/mL
- MBC^b = MBC in the presence of 5 μg/ml of INF 401 (S. aureus SA1199 [2]; [6]): >128
- MIC (S. aureus SA1199 [2]; [7]): 16 µg/mL
- MBC^b = MBC in the presence of 10 μg/ml of INF 402 (S. aureus SA1199 [3]): >128

Compound: COc1ccc(C(=O)N(O)c2ccccc2)cc1 [INF 402]
- lowest concentration at which the potentiator is active (titration in the presence of erythromycin) (S. aureus strain SA1199): 1.25 to 2.5 µg/mL
- effect on viability of S. aureus in combination with a bacteriostatic concentration of erythromycin (S. aureus strain SA1199): reduced the viability

Compound: Cc1cc(C)c2ccc(NN)nc2c1O [INF 406]
- lowest concentration at which the potentiator is active (titration in the presence of erythromycin) (S. aureus strain SA1199): 0.6 µg/mL
- effect on viability of S. aureus in combination with a bacteriostatic concentration of erythromycin (S. aureus strain SA1199): reduced the viability

Compound: CO[C@H]1/C=C/O[C@@]2(C)Oc3c(C)c(O)c4c(O)c(c(/C=N/N5CCN(C)CC5)c(O)c4c3C2=O)NC(=O)/C(C)=C\C=C\[C@H](C)[C@H](O)[C@@H](C)[C@@H](O)[C@@H](C)[C@H](OC(C)=O)[C@@H]1C [Rifampin]
- MIC (S. aureus SA1199 [2]; Staphylococcus aureus, SA1199): 0.009 µg/mL
- MBC (S. aureus SA1199 [2]; [4]): 0.06 µg/mL
- MBC^b = MBC in the presence of 5 μg/ml of INF 401 (S. aureus SA1199 [2]; [6]): 0.0019
- MIC (S. aureus ATCC 29213; Staphylococcus aureus, ATCC29213, planktonic population): 7.5 ng/mL
- MBEC (S. aureus ATCC 29213; biofilm population): >2 µg/mL

Compound: CN(C)[C@@H]1C(O)=C(C(N)=O)C(=O)[C@@]2(O)C(O)=C3C(=O)c4c(O)cccc4[C@@](C)(O)[C@H]3C[C@@H]12 [Tetracycline]
- MBC (S. aureus SA1199 [2]; [4]): 8 µg/mL
- MBC (S. aureus SA1199 [2]; [5]): > 8 µg/mL
- MBC^b = MBC in the presence of 5 μg/ml of INF 401 (S. aureus SA1199 [2]; [6]): 0.25
- reduction in cell viability, antibiotic in combination with INF 401 (S. aureus (SA1199); antibiotic 1×MIC + 5 μg/ml INF 401): 3 log10
- bactericidal concentration in the absence of INF 401 as multiple of MIC (S. pneumoniae): 4 ×MIC
- MBC^b = MBC in the presence of 10 μg/ml of INF 402 (S. aureus SA1199 [3]): 2

Compound: COc1cc(Cc2cnc(N)nc2N)cc(OC)c1OC [Trimethroprim]
- MBC^a = MBC in the absence of INF 401 (S. aureus SA1199 [2]; Table 1, S. aureus SA1199, antibiotic alone, unit inferred): 32 µg/mL
- MBC^b = MBC in the presence of 5 μg/ml of INF 401 (S. aureus SA1199 [2]; [6]): 8
- MIC (S. aureus SA1199 [2]; [6]): 1

Compound: CCOc1cccc(/C=N/NC(=O)Cc2ccc(C)cc2)c1O [drawing 37]
- Activity (minimal concentration required to kill 99.9% of S. aureus) (S. aureus strain SA1199): >10 µg/mL
- ^55Fe Accm. (S. aureus SA 29213): 1,200 DPM

Compound: CCOc1cccc(/C=N/NC(=O)Cc2ccc(C)cc2)c1O [drawing 38]
- Activity (minimal concentration required to kill 99.9% of S. aureus) (S. aureus strain SA1199): 1.25 µg/mL
- ^55Fe Accm. (S. aureus SA 29213): 17,400 DPM
